Data taken from patent US11366114B2, “Genetically encoded fluorescent sensors for detecting ligand bias and intracellular signaling through cAMP pathways” (MONTANA MOLECULAR LLC, priority 2013, dated 2022).

How the values were obtained:
[1] = system: cAMP; test: Fluorescence response of cAMP sensors to isoproterenol in HEK 293 cells co-expressing the beta adrenergic receptor; type: cell-based, human; details: for Relative Change in Fluorescence: in response to isoproternol; for dF/F: relative fluorescence response to isoproternol
Method: To test the functionality of these 28 prototype sensors, each construct was co-expressed with the beta adrenergic receptor, which couples to the Gs signaling pathway when activated by isoproteronol, in HEK 293 cells, and the fluorescence measured as described below. Briefly, 96-well glass-bottom plates were coated with Poly-D-Lysine (Fisher Scientific, Pittsburgh, Pa.) and HEK 293 were seeded and cultured in EMEM (ATCC, Manassas, Va.) supplemented with 10% fetal bovine serum and Penicillin-Streptomycin at 37 […] and 30 ng of beta adrenergic receptor per well, using Lipofectamine 2000 Transfection Reagent (Life Technologies, Grand Island, N.Y.) according to the manufacturer's protocol, and incubated for 24-48 hours at 37° C. in 5% CO2.
Prior to screening transfected cells for fluorescence, he EMEM culture medium was removed and 1×DPBS added to each well. A Zeiss Axiovert S100TV inverted microscope equipped with computer controlled excitation/emission filter wheels, shutters, and a Qimaging Retiga Exi CCD camera (Surrey, BC Canada) was used to image cells at 25e A) supplemented with 10% fetal bovine serum and Penicillin-Streptomycin at 37hn filters were used to resolve the green fluorescence from the cAMP sensors. Cells were analyzed for increases or decreases in fluorescence intensity upon addition of isoproternol, DMSO, forskolin and IBMX. To analyze the image stacks, background fluorescence was defined as a region of the image that contained no cells. The average value of this region was subtracted frame by frame from the measurements of the mean pixel values of the fluorescent cells. Fluorescence intensity data was plotted and analyzed with IGOR (Wavemetrics, Oswego, Oreg.).
For transient expression and screening in an automated fluorescence plate reader, HEK 293T cells were cultured in Corning Co-Star Polystyrene 96-well plates coated with Poly-D-Lysine. HEK293T cells were plated at 35,000 cells/well in 100 μl growth medium per well without antibiotics so that the cells would be 90-95% confluent at the time of transfection (approximately 24 hours later). For each transfection (i.e. one well in a 96-well plate), 160 ng of plasmid DNA (120 ng sensor+40 ng receptor) was diluted in […] and then the mixture was replaced with fresh medium. Prior to scanning a plate on the Biotek Synergy Mx, EMEM culture medium was replaced with 250 μl of 1×DPBS per well. Plates were read at 25° C., using monochromators set to 488/20 nm excitation and 530/20 nm emission to resolve the green fluorescence from the cAMP sensor.

[2] = molecular target: T1, G-protein coupled calcitonin receptor (Homo sapiens, UniProt P30988); test: Multiplexing of cAMP sensor with DAG sensor, calcitonin response curves; type: cell-based
T1 sequence (P30988 25-474): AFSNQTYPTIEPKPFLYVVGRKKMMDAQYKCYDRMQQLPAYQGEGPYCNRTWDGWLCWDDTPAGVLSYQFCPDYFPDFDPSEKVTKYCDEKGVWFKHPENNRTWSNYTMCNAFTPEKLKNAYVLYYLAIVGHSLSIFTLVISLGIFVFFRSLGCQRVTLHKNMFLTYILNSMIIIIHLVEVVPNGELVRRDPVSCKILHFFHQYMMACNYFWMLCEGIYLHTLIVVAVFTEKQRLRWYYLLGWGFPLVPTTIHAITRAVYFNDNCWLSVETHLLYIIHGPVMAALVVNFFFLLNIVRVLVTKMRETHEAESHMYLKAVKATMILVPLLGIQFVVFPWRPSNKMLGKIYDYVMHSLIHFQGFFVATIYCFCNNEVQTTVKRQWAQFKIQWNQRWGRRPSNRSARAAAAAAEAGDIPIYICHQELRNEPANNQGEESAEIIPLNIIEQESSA
Excerpt: FIG. 6 Multiplexing of a cAMP biosensor based on a single fluorescent protein with a second biosensor of a different color. The G-protein coupled calcitonin receptor was stimulated with different amounts of calcitonin (shown on the X axis) to produce response curves for a red cAMP and a green DAG sensor. The Y axis on the right indicates cAMP response. The Y axis on the left indicates DAG response.
The ability of cAMP sensor proteins of the present invention to be multiplexed with other fluorescence based sensors was tested. Briefly, cells were co-transfected with expression vector expressing a cAMP sensor protein of the present invention comprising a green fluorescent protein, and a DAG biosensor comprising a red fluorescent protein. The cells were cultured, treated with isoptroterenol and the resulting fluorescence measured as described in Example 1A. The results of this study are show in FIG. 6.

[3] = HEK 293 cells, beta adrenergic receptor co-expressed

G-protein pathways stimulated (cAMP sensor / DAG sensor) ([2]; low concentrations) | Substance | Relative Change in Fluorescence [1] [%] | dF/F [1, 3] | dF/F ([1]; only cell of the column printed with %) [%] | G-protein pathways stimulated (cAMP sensor / DAG sensor) ([2]; higher concentrations)
 | EPAC2gfpRAP1B: cpEGFP tethered between Epac2 and Rap1B; SEQID 27 in Table 1, SEQ ID NO: 28 in Table 3 | 26 |  |  | 
 | EcpG18: prototype cAMP sensor, cpEGFP in Epac2 at A486; SEQID 32 in Table 1, SEQ ID NO: 33 in Table 3 | 12 | 12 |  | 
 | EcpG22: prototype cAMP sensor, cpEGFP in Epac2 at V341; SEQID 31 in Table 1, SEQ ID NO: 32 in Table 3 | −14 |  | −14 | 
 | EcpG24: prototype cAMP sensor, cpEGFP in Epac2 at A520; SEQID 33 in Table 1, SEQ ID NO: 34 in Table 3 | −11 | −11 |  | 
 | EcpG15: prototype cAMP sensor, cpEGFP in Epac2 at N463; SEQID 17 in Table 1, SEQ ID NO: 18 in Table 3 | 34 | 34 |  | 
 | EcpG23: prototype cAMP sensor, cpEGFP in Epac2 at L518; SEQID 29 in Table 1, SEQ ID NO: 30 in Table 3 | −16 | −16 |  | 
can stimulate just one G-protein pathway | calcitonin |  |  |  | two different G-protein pathways have been activated
 | EcpG12: prototype cAMP sensor, cpEGFP in Epac2 at V460; SEQID 11 in Table 1, SEQ ID NO: 12 in Table 3 | −36 | −36 |  | 
 | EcpG13: prototype cAMP sensor, cpEGFP in Epac2 at E461; SEQID 28 in Table 1, SEQ ID NO: 29 in Table 3 | −22 | −22 |  | 
 | EcpG9: prototype cAMP sensor, cpEGFP in Epac2 at L457; SEQID 30 in Table 1, SEQ ID NO: 31 in Table 3 | 13 | 13 |  | 
 | EcpG10: prototype cAMP sensor, cpEGFP in Epac2 at R458; SEQID 25 in Table 1, SEQ ID NO: 26 in Table 3 | −30 | −30 |  | 
